Reference: patent US7569724B2, “Carbamic acid compounds comprising an amide linkage as HDAC inhibitors” (Topotarget UK Limited, priority 2000, dated 2009)
Where two headings read alike, the source gives them in different places.

Key:
[1] = test system: K11 HPV E7 transformed human keratinocyte line; assay: Secondary assay: cell proliferation WST-1, K11; format: cell-based; conditions: for IC50: Homo sapiens, Keratinocyte, read-out: Cell Proliferation Inhibition WST-1 (IC50 unless otherwise specified) K11
Procedure: (§1) Compounds with HDAC inhibition activity, as determined using the primary assay, were subsequently evaluated using secondary cell-based assays. The following cell lines were used:
K11—HPV E7 transformed human keratinocyte line provided by Pidder Jansen-Duerr, Institut für Biomedizinische Alternsforschung, Innsbruck, Austria.
(§2) Cells were plated in 96-well plates at 3-10×10^3 cells/well in 100 μL of culture medium. The following day, different concentrations of candidate compounds were added and the cells incubated at 37° C. for 48 h. Subsequently, 10 μL/well of WST-1 reagent was added and the cells reincubated for 1 hour. After the incubation time, absorbance was measured.
(§3) WST-1 is a tetrazolium salt which is cleaved to formazan dye by cellular enzymes. An expansion in the number of viable cells results in an increase in the overall activity of mitochondrial dehydrogenases in the sample. This augmentation in the enzyme activity leads to an increase in the amount of formazan dye formed, which directly correlates to the number of metabolically active cells in the culture. The formazan dye produced is quantified by a scanning multiwell spectrophotometer by measuring the absorbance of the dye solution at 450 nm wavelength (reference wavelength 690 nm).
(§4) Percent activity (% activity) in reducing the number of viable cells was calculated for each test compound as: % activity={(S^C−B)/(S^o−B)}×100 wherein S^C denotes signal measured in the presence of the compound being tested, S^o denotes signal measured in the absence of the compound being tested, and B denotes the background signal measured in blank wells containing medium only.
(§5) IC50 values were calculated using the software package Prism 3.0 (GraphPad software Inc., San Diego, Calif.), setting top value at 100 and bottom value at 0.

[2] = test system: JURKAT human T-cell line; assay: Secondary assay: cell proliferation WST-1, Jurkat; format: cell-based; conditions: 48 h; for IC50: Homo sapiens, read-out: Cell Proliferation Inhibition WST-1 (IC50 unless otherwise specified) Jurkat
Procedure: as §1
JURKAT—Human T-cell line (ATCC no. TIB-152).
as §2, §3, §4, §5

[3] = test system: HeLa cells; assay: Secondary assay: cell proliferation WST-1, HeLa; format: cell-based; conditions: Homo sapiens, 48 h, read-out: Cell Proliferation Inhibition WST-1 (IC50 unless otherwise specified) HeLa
In short: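 Absorbance at 450 nm (reference 690 nm); % activity vs untreated after blank subtraction, IC50 fitted with top 100 and bottom 0.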

[4] = test system: HDAC (HeLa cell extract); assay: Primary assay: deacetylase activity, HeLa cell extract as source of HDAC; format: biochemical, human; conditions: HeLa cell extract
In short: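 Crude HeLa extract (freeze-thaw in 60 mM TrisCl pH 8.0, 450 mM NaCl, 30% glycerol) was incubated 1 h at 37° C with a [³H]acetyl-labelled histone H4 N-terminal peptide in 20 mM Tris pH 7.4, 10% glycerol.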

[5] = read-out: HDAC Inhibition (IC50 unless otherwise specified) HeLa

SMILES | IC50 ([1]; 48 h) [µM] | IC50 [2] [µM] | melting point [°C] | IC50 [3] [µM] | IC50 [4, 5] [µM] | HDAC Inhibition HeLa, percent ([4]; @ 500 nM) [% @ 500 nM] | IC50 ([4]; comparative tables, read-out: HeLa IC50) [µM] | HDAC Inhibition HeLa, percent ([4]; @ 100 nM) [% @ 100 nM] | IC50 ([1]; K11, 48 h) [µM] | Cell Proliferation Inhibition WST-1 (IC50 unless otherwise specified) K11 ([1]; K11, 48 h) | Cell Proliferation Inhibition WST-1 (IC50 unless otherwise specified) Jurkat [2]
O=C(CCCCCCNC(=O)c1ccc2ccccc2c1)NO [PX106493, Naphthalene-2-carboxylic acid (6-hydroxycarbamoyl-hexyl)-amide] | 2.1 | 0.2 | 136 to 137 | 0.36 |  |  |  |  |  |  | 
O=C(CCCCCCCNC(=O)c1ccc2ccccc2c1)NO [PX106515, Naphthalene-2-carboxylic acid (7-hydroxycarbamoyl-heptyl)-amide] | 1.8 | 2.7 | 138 to 139 | 3.6 | 0.0277 |  |  |  |  |  | 
O=C(CCCCCCC(=O)NCC(O)c1ccccc1)NO (centres unmarked) [PX116226, Octanedioic acid hydroxyamide (2-hydroxy-2-phenyl-ethyl)-amide] | 5.1 | 3.2 | 100 to 102 | 4.1 | 0.562 |  |  |  |  |  | 
CN(CCCCCC(=O)NO)C(=O)/C=C/C=C/c1ccccc1 [PX116234] | 3.6 | 2.7 | 145 to 147 | 3.4 | 0.015 |  |  |  |  |  | 
O=C(/C=C/c1cccn1-c1ccc(Cl)cc1)NCCCCCC(=O)NO [PX116235, E-3-[1-(4-Chlorophenyl)-1H-pyrrol-2-yl]-N-(5-hydroxycarbamoylpentyl)acrylamide] | 2.6 | 0.7 |  | 1 | 0.01 |  |  |  |  |  | 
O=C(CCCCCCC(=O)NC/C=C/c1ccccc1)NO [PX117416, Octanedioic acid hydroxyamide (3-phenyl-allyl)-amide] | 8.5 | 3.6 | 133 to 133.5 | 7.4 |  | 75 |  |  |  |  | 
O=C(CCCCCCC(=O)NCCc1ccccc1)NO [PX117419, Octanedioic acid hydroxyamide phenethyl-amide] | > 30 | 3.5 |  | 13 |  | 46 |  |  |  |  | 
O=C(CCCCCCC(=O)NCCCc1ccccc1)NO [PX117420, Octanedioic acid hydroxyamide (3-phenyl-propyl)-amide] | 23.5 | 5.3 | 97 to 98 | 15 |  | 73 |  |  |  |  | 
O=C(/C=C/c1cccc(Oc2ccccc2)c1)NCCCCCC(=O)NO [PX117430, E-N-(5-Hydroxycarbamoylpentyl)-3-(3-phenoxyphenyl)acrylamide] | 4.4 | 4.6 |  | 27 | 0.085 |  |  |  |  |  | 
O=C(C=C(c1ccccc1)c1ccccc1)NCCCCCC(=O)NO [PX117436, E-N-(5-Hydroxycarbamoylpentyl)-3,3-diphenylacrylamide] | > 30 | 3.5 |  | 8.5 |  | 64 |  |  |  |  | 
O=C(/C=C/C=C(c1ccccc1)c1ccccc1)NCCCCCC(=O)NO [PX117437, 2E-5,5-Diphenylpenta-2,4-dienoic acid (5-hydroxycarbamoylpentyl)amide] | 3.4 | 1.4 |  | 3.7 |  | 95 |  |  |  |  | 
O=C(/C=C/c1cccc2ccccc12)NCCCCCC(=O)NO [PX117441, N-(5-Hydroxycarbamoyl-pentyl)-3-naphthalen-1-yl-acrylamide] | 4.9 | 4.3 | 135 to 137 | 17 | 0.048 |  | 0.048 |  |  |  | 
O=C(CCCCCNC(=O)CC=C(c1ccccc1)c1ccccc1)NO [PX117454, E-4,4-Diphenylbut-3-enoic acid (5-hydroxycarbamoylpentyl)amide] | 13 | 3.4 |  | 15 | 0.263 |  |  |  |  |  | 
O=C(/C=C/c1cccc(NC(=O)/C=C/C=C/c2ccccc2)c1)NO [PX117706, N-{3-[(E)-3-(Hydroxyamino)-3-oxo-1-propenyl]phenyl}-5-phenyl-(2E,4E)-pentadienamide] | 6.9 | 1.8 |  | 30 | 0.32 |  |  |  |  |  | 
CC(/C=C/C(=O)Nc1cccc(/C=C/C(=O)NO)c1)=C\c1ccccc1 [PX117707, N-{3-[(E)-3-(Hydroxyamino)-3-oxo-1-propenyl]phenyl}-4-methyl-5-phenyl-(2E,4E)-pentadienamide] | 7.7 | 1.5 | 145 to 148 | 43 | 0.235 |  |  |  |  |  | 
O=C(/C=C/c1cccc(NC(=O)/C=C/c2ccc3c(c2)OCO3)c1)NO [PX117711, (E)-3-(1,3-Benzodioxol-5-yl)-N-{3-[(E)-3-(hydroxyamino)-3-oxo-1-propenyl]phenyl}-2-propenamide] | 7.9 | 0.92 | 128 | 9.8 | 0.44 |  |  |  |  |  | 
O=C(/C=C/c1ccc(C(F)(F)F)cc1)NCCCCCC(=O)NO [PX117717, N-(5-Hydroxycarbamoyl-pentyl)-3-(4-trifluoromethyl-phenyl)-acrylamide] | 2.34 | 0.41 | 132 to 134 | 5.9 | 0.022 |  |  |  |  |  | 
O=C(/C=C/c1cccc(OC(F)(F)F)c1)NCCCCCC(=O)NO [PX117718, N-(5-Hydroxycarbamoyl-pentyl)-3-(3-trifluoromethoxy-phenyl)-acrylamide] | 3.7 | 4.4 | 109 to 111 | 39 | 0.067 |  |  |  |  |  | 
O=C(/C=C/c1ccc(Cl)cc1F)NCCCCCC(=O)NO [PX117719, 3-(4-Chloro-2-fluoro-phenyl)-N-(5-hydroxycarbamoyl-pentyl)-acrylamide] | 0.94 | 0.56 |  | 6.8 |  |  |  |  |  |  | 
O=C(CCCCCCC(=O)Nc1ccc(-c2ccccc2)cc1)NO [PX117720, Octanedioic acid biphenyl-4-ylamide hydroxamide] | 2.5 | 0.26 | 227 to 229 | 1.8 | 0.04 |  |  |  |  |  | 
CC(C)(C(=O)NCCCCCC(=O)NO)c1ccc(Cl)cc1 [PX117722, 6-[2-(4-Chlorophenyl)-2-methyl-propionylamino]-hexanoic acid hydroxyamide] | > 30 | 8.8 |  |  | > 0.1 |  |  |  |  |  | 
O=C(CCCCCNC(=O)c1sccc1OCc1ccccc1)NO [PX117723] | 10 | 1.2 |  |  |  | 46 |  |  |  |  | 
O=C(CCCCCNC(=O)c1ccc(Oc2ccccc2)cc1)NO [PX117726] | 4.1 | 9.9 |  |  |  | 35 |  |  |  |  | 
O=C(CCCCCNC(=O)Cc1ccccc1OCc1ccccc1)NO [PX117728] | 28 | 4.1 |  |  | > 0.1 |  |  |  |  |  | 
Cc1ccc(C(CC(=O)NCCCCCC(=O)NO)NC(=O)OCc2ccccc2)cc1 (centres unmarked) [PX117729, [2-(5-Hydroxycarbamoyl-pentylcarbamoyl)-1-p-tolyl-ethyl]-carbamic acid benzyl ester] | 23 | 2.8 | 146 to 148 | 33 |  |  |  | 13 |  |  | 
C/C(C(=O)NCCCCCC(=O)NO)=C(/C)c1ccccc1 [PX117737, E-2-Methyl-3-phenylbut-2-enoic acid (5-hydroxycarbamoylpentyl)amide] | > 30 | 2.2 |  | 32 | 1.2 |  |  |  |  |  | 
O=C(CCCCCNC(=O)[C@H](Cc1c[nH]c2ccccc12)NC(=O)c1ccc2ccccc2c1)NO [PX117783, (S)-Naphthalene-2-carboxylic acid [1-(5-hydroxycarbamoyl-pentylcarbamoyl)-2-(1H-indol-3-yl)-ethyl]-amide] |  | 1.6 |  | 6 | 0.1 |  |  |  | 9.7 |  | 
O=C(CCCCCNC(=O)[C@H](Cc1c[nH]c2ccccc12)NC(=O)CCCNC(=O)OCc1ccccc1)NO [PX117785, (S)-Carbamic acid, [4-[[2-[[6-(hydroxyamino)-6-oxohexyl]amino]-1-(1H-indol-3-ylmethyl)-2-oxoethyl]amino]-4-oxobutyl]-, phenylmethyl ester] |  |  |  |  | 0.192 |  |  |  |  | Inactive | Inactive
